system: brains, heart, liver, muscle, and DRG of the NHPs; assay: Maturation of TTM-001 and TTM-002 capsids, NGS enrichment in NHP tissues; assay type: in vivo; details: NGS fold-enrichment; DRG; NHP; relative to AAV9
Source text: This Example describes maturation of the AAV9 capsid variants, TTM-001 (SEQ ID NO: 981 (amino acid) and 983 (DNA), comprising SEQ ID NO: 941 (encoded by SEQ ID NO: 942)) and TTM-002 (SEQ ID NO: 982 (amino acid) and 984 (DNA), comprising SEQ ID NO: […] (encoded by SEQ ID NO: 944)) in NHPs to further enhance their transduction and biodistribution in the central nervous system as well as other tissues, and evolve the AAV capsid variants to provide further cross-species compatibility. Two approaches were used to mature the TTM-001 and TTM-002 capsid sequences in order to randomize and mutate within and around the peptide insert comprised within loop IV of the capsid variant. […] In the first maturation approach, sets of three contiguous amino acids were randomized across the mutagenesis region in the TTM-001 and TTM-002 sequences, which spanned from position 450 to position 466, numbered according to SEQ ID NO: 981 and 982. In the second maturation approach, mutagenic primers were used to introduce point mutations at a low frequency, scattered across the mutagenesis region in the TTM-001 and TTM-002 sequences ranging from position 449 to position 466, numbered according to SEQ ID NO: 981 and 982. AAV capsid variants arising from each maturation approach for TTM-001 and TTM-002 were pooled together, for subsequent testing and characterization in NHPs.
The library of pooled matured AAV capsid variants generated using the first maturation approach and the second maturation approach for the TTM-001 and TTM-002 AAV capsid variants were injected into two NHPs. […] Following RNA recovery and RT-PCR amplification, a systematic NGS enrichment analysis was performed to calculate the fold enrichment ratio relative to an AAV9 control, and the peptides comprised within the variants were identified.
Following the RNA recovery and NGS analysis from the second maturation approach, approximately 680,000 capsid variants were identified. The 680,000 matured capsid variants were then filtered based on samples with a raw virus count greater than 10 and a coefficient of variance (CV) of less than 1, which was calculated for each peptide across the brain samples taken from the two NHPs. […] Using this filtering criteria, this led to approximately 64,000 matured capsid variants.

| Sequence | Fold Enrichment relative to AAV9, DRG (NHP) [fold] |
| --- | --- |
| KTINGSGSPHFPFQNQQT | 0.000 |
| KTINGSGSPHKSGQNPQT | 0.000 |
| KTINGSGSPHSKAKKVQT | 0.000 |

same assay, conditions: NGS fold-enrichment; brain; NHP; relative to AAV9

| Sequence | Fold Enrichment relative to AAV9, Brain (NHP) [fold] |
| --- | --- |
| KTINGSGSPHFPFQNQQT | 0.000 |
| KTINGSGSPHKSGQNPQT | 0.000 |
| KTINGSGSPHSKAKKVQT | 0.000 |

same assay, conditions: NGS fold-enrichment; heart; NHP; relative to AAV9

| Sequence | Fold Enrichment relative to AAV9, Heart (NHP) [fold] |
| --- | --- |
| KTINGSGSPHFPFQNQQT | 0.000 |
| KTINGSGSPHKSGQNPQT | 0.000 |
| KTINGSGSPHSKAKKVQT | 0.000 |

same assay, conditions: NGS fold-enrichment; liver DNA; NHP; relative to AAV9

| Sequence | Fold Enrichment relative to AAV9, Liver DNA (NHP) [fold] |
| --- | --- |
| KTINGSGSPHFPFQNQQT | 3.715 |
| KTINGSGSPHKSGQNPQT | 11.790 |
| KTINGSGSPHSKAKKVQT | 3.974 |

same assay, conditions: NGS fold-enrichment; liver RNA; NHP; relative to AAV9

| Sequence | Fold Enrichment relative to AAV9, Liver RNA (NHP) [fold] |
| --- | --- |
| KTINGSGSPHFPFQNQQT | 10.322 |
| KTINGSGSPHKSGQNPQT | 11.014 |
| KTINGSGSPHSKAKKVQT | 10.102 |

same assay, conditions: NGS fold-enrichment; muscle; NHP; relative to AAV9

| Sequence | Fold Enrichment relative to AAV9, Muscle (NHP) [fold] |
| --- | --- |
| KTINGSGSPHFPFQNQQT | 0.000 |
| KTINGSGSPHKSGQNPQT | 0.000 |
| KTINGSGSPHSKAKKVQT | 0.000 |

same assay, conditions: NHP DRG; NGS; relative to AAV9 control

| Sequence | Fold Enrichment relative to AAV9, DRG (NHP) [fold] |
| --- | --- |
| KTINGSGSPHSKCFLQQT | 0.000 |
| KTINGSGSPHSKAQFILT | 0.000 |
| KTINGSGSPHSKAQYVRT | 0.000 |
| KTIFDCGSPHSKAQNQQT | 0.000 |
| KTINGSGSPHSCSRNQQT | 0.000 |
| KTINGSGSPHSYLVNQQT | 0.000 |
| KTINGSGSPHSKKTSQQT | 0.000 |
| KTINGRRSPHMKAQNQQT | 0.000 |
| KTINGSGSPHSFPFNQQT | 0.000 |
| KTINGSGSPHSKYFMQQT | 0.000 |
| KTINGSGSPHPSCQNQQT | 0.000 |
| KTINGSGSPHSMCQNQQT | 0.000 |
| KTINGSYSPHCLAQNQQT (peptide inserted in AAV capsid) | 0.000 |
| KPRWGSGSPHSKAQNQQT | 0.000 |
| KTINGSGSPHIVWQNQQT | 0.000 |
| KTINGAYSPHRKAQNQQT | 0.000 |
| KTINGSGSPHSMCTNQQT | 0.000 |

same assay, conditions: NHP brain; NGS; relative to AAV9 control

| Sequence | Fold Enrichment relative to AAV9, Brain (NHP) [fold] |
| --- | --- |
| KTINGSGSPHSKCFLQQT | 0.000 |
| KTINGSGSPHSKAQFILT | 0.000 |
| KTINGSGSPHSKAQYVRT | 0.000 |
| KTIFDCGSPHSKAQNQQT | 0.000 |
| KTINGSGSPHSCSRNQQT | 0.000 |
| KTINGSGSPHSYLVNQQT | 0.000 |
| KTINGSGSPHSKKTSQQT | 0.000 |
| KTINGRRSPHMKAQNQQT | 0.000 |
| KTINGSGSPHSFPFNQQT | 0.000 |
| KTINGSGSPHSKYFMQQT | 0.000 |
| KTINGSGSPHPSCQNQQT | 0.000 |
| KTINGSGSPHSMCQNQQT | 0.000 |
| KTINGSYSPHCLAQNQQT (peptide inserted in AAV capsid) | 0.000 |
| KPRWGSGSPHSKAQNQQT | 0.000 |
| KTINGSGSPHIVWQNQQT | 0.000 |
| KTINGAYSPHRKAQNQQT | 0.000 |
| KTINGSGSPHSMCTNQQT | 0.000 |

same assay, conditions: NHP heart; NGS; relative to AAV9 control

| Sequence | Fold Enrichment relative to AAV9, Heart (NHP) [fold] |
| --- | --- |
| KTINGSGSPHSKCFLQQT | 0.000 |
| KTINGSGSPHSKAQFILT | 0.000 |
| KTINGSGSPHSKAQYVRT | 0.000 |
| KTIFDCGSPHSKAQNQQT | 0.000 |
| KTINGSGSPHSCSRNQQT | 0.000 |
| KTINGSGSPHSYLVNQQT | 0.000 |
| KTINGSGSPHSKKTSQQT | 0.000 |
| KTINGRRSPHMKAQNQQT | 0.000 |
| KTINGSGSPHSFPFNQQT | 0.000 |
| KTINGSGSPHSKYFMQQT | 0.000 |
| KTINGSGSPHPSCQNQQT | 0.000 |
| KTINGSGSPHSMCQNQQT | 0.000 |
| KTINGSYSPHCLAQNQQT (peptide inserted in AAV capsid) | 0.000 |
| KPRWGSGSPHSKAQNQQT | 375.537 |
| KTINGSGSPHIVWQNQQT | 0.000 |
| KTINGAYSPHRKAQNQQT | 0.000 |
| KTINGSGSPHSMCTNQQT | 0.000 |

same assay, conditions: NHP liver DNA; NGS; relative to AAV9 control

| Sequence | Fold Enrichment relative to AAV9, Liver DNA (NHP) [fold] |
| --- | --- |
| KTINGSGSPHSKCFLQQT | 1.434 |
| KTINGSGSPHSKAQFILT | 4.208 |
| KTINGSGSPHSKAQYVRT | 3.275 |
| KTIFDCGSPHSKAQNQQT | 1.602 |
| KTINGSGSPHSCSRNQQT | 4.293 |
| KTINGSGSPHSYLVNQQT | 1.267 |
| KTINGSGSPHSKKTSQQT | 1.344 |
| KTINGRRSPHMKAQNQQT | 3.510 |
| KTINGSGSPHSFPFNQQT | 4.693 |
| KTINGSGSPHSKYFMQQT | 2.993 |
| KTINGSGSPHPSCQNQQT | 2.790 |
| KTINGSGSPHSMCQNQQT | 1.348 |
| KTINGSYSPHCLAQNQQT (peptide inserted in AAV capsid) | 0.309 |
| KPRWGSGSPHSKAQNQQT | 0.386 |
| KTINGSGSPHIVWQNQQT | 6.056 |
| KTINGAYSPHRKAQNQQT | 1.283 |
| KTINGSGSPHSMCTNQQT | 0.392 |

same assay, conditions: NHP liver RNA; NGS; TTM-001 and TTM-002 matured AAV capsid variants; relative to AAV9 control

| Sequence | Fold Enrichment relative to AAV9, Liver RNA (NHP) [fold] |
| --- | --- |
| KTINGSGSPHSKCFLQQT | 22.987 |
| KTINGSGSPHSKAQFILT | 16.650 |
| KTINGSGSPHSKAQYVRT | 12.239 |
| KTIFDCGSPHSKAQNQQT | 27.844 |
| KTINGSGSPHSCSRNQQT | 40.372 |
| KTINGSGSPHSYLVNQQT | 17.766 |
| KTINGSGSPHSKKTSQQT | 15.244 |
| KTINGRRSPHMKAQNQQT | 12.136 |
| KTINGSGSPHSFPFNQQT | 38.584 |
| KTINGSGSPHSKYFMQQT | 57.350 |
| KTINGSGSPHPSCQNQQT | 27.796 |
| KTINGSGSPHSMCQNQQT | 37.209 |
| KTINGSYSPHCLAQNQQT (peptide inserted in AAV capsid) | 62.942 |
| KPRWGSGSPHSKAQNQQT | 51.637 |
| KTINGSGSPHIVWQNQQT | 58.021 |
| KTINGAYSPHRKAQNQQT | 40.969 |
| KTINGSGSPHSMCTNQQT | 13.114 |

same assay, conditions: NHP muscle; NGS; relative to AAV9 control

| Sequence | Fold Enrichment relative to AAV9, Muscle (NHP) [fold] |
| --- | --- |
| KTINGSGSPHSKCFLQQT | 0.000 |
| KTINGSGSPHSKAQFILT | 0.000 |
| KTINGSGSPHSKAQYVRT | 0.000 |
| KTIFDCGSPHSKAQNQQT | 0.000 |
| KTINGSGSPHSCSRNQQT | 0.000 |
| KTINGSGSPHSYLVNQQT | 0.000 |
| KTINGSGSPHSKKTSQQT | 0.000 |
| KTINGRRSPHMKAQNQQT | 0.000 |
| KTINGSGSPHSFPFNQQT | 0.000 |
| KTINGSGSPHSKYFMQQT | 0.000 |
| KTINGSGSPHPSCQNQQT | 0.000 |
| KTINGSGSPHSMCQNQQT | 0.000 |
| KTINGSYSPHCLAQNQQT (peptide inserted in AAV capsid) | 0.000 |
| KPRWGSGSPHSKAQNQQT | 0.000 |
| KTINGSGSPHIVWQNQQT | 0.000 |
| KTINGAYSPHRKAQNQQT | 0.000 |
| KTINGSGSPHSMCTNQQT | 0.000 |

Source: US20260250318A1, “COMPOSITIONS AND METHODS FOR CROSSING THE BLOOD BRAIN BARRIER” (VOYAGER THERAPEUTICS, INC., priority 2022, published 2026)
